# Read-outs that look alike come from different tables or passages of the source.
# Columns and labels:
# [1] = test system: blood glucose; test: Blood glucose in normal rats, Table 1 (Example 2c); type: in vivo, rat; conditions: Group Four
# Protocol: The Group Two rats have between 1.5 and 1.7 ml of the suspension similarly administered. The rats of Group Three receive 1.0 ml of distilled water similarly administered. The rats of Group Four similarly receive 25.0 mg of porcine insulin in 1.0 ml of distilled water. Both before and during the experiment, all animals are permitted free access to water and their normal feed. Blood glucose levels are measured on samples drawn from the tail at specific intervals after treatment and group averages are recorded in Table 1 as milligrams of glucose per deciliter of blood (mg/dl).
# [2] = test system: blood glucose; test: Blood glucose in normal rats, Table 2 (Example 4); type: in vivo, rat; conditions: 1 ml/500 g by gavage
# Protocol: Doses of the resulting suspension, which contain no insulin within the microspheres, are referred to as "microspheres with external insulin". Dosages of the 2.5 mg/ml solution of porcine insulin alone are referred to as "raw insulin".
# Twelve male white rats, each weighing approximately 500 g and havinng a normal blood glucose level, are arbitrarily assigned to two groups of three animals and a third group of six animals. The three animals of group A are administered the insulin filled microspheres by gavage and the three animals of group B are similarly administered the microspheres with external insulin. The six animals of group C similarly receive the raw insulin. All dosages are 1 ml/500 g of body weight and all animals are tested for blood glucose immediately before dosage and at intervals thereafter.
# [3] = test system: blood glucose
# Protocol: Diabetes mellitis is induced in rats weighing approximately 300 g by giving each a 75 mg/kg body weight intravenous injection of streptozotocin. Ten rats which are observed to show consistently high blood glucose levels, polyuria and polydipsia and must be maintained on subcutaneous injections of porcine insulin are selected for this experiment.
# The remaining six diabetic rats are arbitrarily assigned to three groups of two animals. […] The animals of the second and third groups receive subcutaneous injections of 0.25 mg (6.5 I.U.) and 0.125 mg (3.25 I.U.), respectively, of porcine insulin. Blood glucose measurements are made on all animals immediately before dosing and at intervals thereafter. The animal groups are crossed over twice at one week intervals, so that all of the animals receive each of the insulin treatments.
# [4] = test system: blood glucose; conditions: oral, far larger dosages per unit of body weight, unprotected, laboratory animals and humans; cited from earlier work
# [5] = insulin in solution, even when refrigerated; cited from earlier work
# [6] = test system: Time to coagulation (fibrin clot); test: Activated Partial Thromboplastin Time (APTT) test, Table 6 (Example 8b); type: in vivo, rat
# Protocol: Seven male white rats, each weighing approximately 600 g, are deprived of food for 12 hours before the start of the experiment. Rat #1 receives no treatment. Rat #2 receives an intravenous injection of 250 mg of heparin in one ml of distilled water. […] The effect of heparin is determined using the Activated Partial Thromboplastin Time (APTT) test. This test measures the time necessary for a sample of […] taken from the tail vein to form a fibrin clot.
# [7] = test system: coagulation time; conditions: oral, far larger doses per unit of body weight, unprotected, laboratory animals and humans; cited from earlier work
substance,measurement,setting,value
porcine insulin,Ave. Blood Glucose,"[1]; 30 min, 25.0 mg by gavage",120 mg/dL
same,Ave. Blood Glucose,"[1]; 1 hr, 25.0 mg by gavage",120 mg/dL
same,Ave. Blood Glucose,"[1]; 1.5 hr, 25.0 mg by gavage",124 mg/dL
same,Ave. Blood Glucose,"[1]; 2 hr, 25.0 mg by gavage",120 mg/dL
same,Ave. Blood Glucose,"[1]; 3 hr, 25.0 mg by gavage",116 mg/dL
same,Ave. Blood Glucose,"[1]; 4 hr, 25.0 mg by gavage",111 mg/dL
same,Ave. Blood Glucose,"[1]; 6 hr, 25.0 mg by gavage",123 mg/dL
same,Ave. Blood Glucose,"[1]; Predose, 25.0 mg in 1.0 ml water by gavage",113 mg/dL
same,Blood Glucose,[2]; 0 hrs,92.7 mg/dL
same,effect on blood glucose levels,[2],no significant effect
same,Blood Glucose,[2]; 1 hrs,98.2 mg/dL
same,Blood Glucose,[2]; 2 hrs,95.8 mg/dL
same,Blood Glucose,[2]; 3 hrs,86.2 mg/dL
same,Blood Glucose,[2]; 4 hrs,91 mg/dL
same,Blood Glucose,[2]; 6 hrs,89.8 mg/dL
same,Blood Glucose,[2]; 8 hrs,91 mg/dL
same,Blood Glucose,[2]; 12 hrs,92 mg/dL
same,Blood Glucose,[2]; 24 hrs,92 mg/dL
same,Blood Glucose,[2]; .5 hrs,95.5 mg/dL
same,% Decrease from Baseline Blood Glucose,"[3]; 0.5 hrs, 0.125 mg SC",5%
same,% Decrease from Baseline Blood Glucose,"[3]; 0.5 hrs, 0.25 mg SC",28%
same,% Decrease from Baseline Blood Glucose,"[3]; 1 hrs, 0.125 mg SC",17%
same,% Decrease from Baseline Blood Glucose,"[3]; 1 hrs, 0.25 mg SC",55%
same,% Decrease from Baseline Blood Glucose,"[3]; 1.5 hrs, 0.125 mg SC",27%
same,% Decrease from Baseline Blood Glucose,"[3]; 1.5 hrs, 0.25 mg SC",72%
same,% Decrease from Baseline Blood Glucose,"[3]; 2 hrs, 0.125 mg SC",45%
same,% Decrease from Baseline Blood Glucose,"[3]; 2 hrs, 0.25 mg SC",77%
same,% Decrease from Baseline Blood Glucose,"[3]; 3 hrs, 0.125 mg SC",47%
same,% Decrease from Baseline Blood Glucose,"[3]; 3 hrs, 0.25 mg SC",84%
same,% Decrease from Baseline Blood Glucose,"[3]; 4 hrs, 0.125 mg SC",29%
same,% Decrease from Baseline Blood Glucose,"[3]; 4 hrs, 0.25 mg SC",79%
same,% Decrease from Baseline Blood Glucose,"[3]; 6 hrs, 0.125 mg SC",8%
same,% Decrease from Baseline Blood Glucose,"[3]; 6 hrs, 0.25 mg SC",34%
same,% Decrease from Baseline Blood Glucose,"[3]; 8 hrs, 0.125 mg SC",-8%
same,% Decrease from Baseline Blood Glucose,"[3]; 8 hrs, 0.25 mg SC",4%
same,% Decrease from Baseline Blood Glucose,"[3]; 12 hrs, 0.125 mg SC",-8%
same,% Decrease from Baseline Blood Glucose,"[3]; 12 hrs, 0.25 mg SC",3%
same,% Decrease from Baseline Blood Glucose,"[3]; 24 hrs, 0.125 mg SC",-8%
same,% Decrease from Baseline Blood Glucose,"[3]; 24 hrs, 0.25 mg SC",-7%
same,% Decrease from Baseline Blood Glucose,"[3]; 48 hrs, 0.125 mg SC",-8%
same,% Decrease from Baseline Blood Glucose,"[3]; 48 hrs, 0.25 mg SC",-5%
same,reduction of blood glucose levels,[4],no detectable reduction of blood glucose levels
bovine insulin,reduction of blood glucose levels,[4],no detectable reduction of blood glucose levels
insulin,degradation in solution,[5],degrade within a few days
heparin,Time to Coagulation in the APTT Test,"[6]; 1 hr, IV 250 mg",54 s
same,Time to Coagulation in the APTT Test,"[6]; 2 hrs, IV 250 mg",> 300 s
same,Time to Coagulation in the APTT Test,"[6]; Predose, IV group, 250 mg",25 s
same,increase in coagulation time,[7],no detectable increase in coagulation time

# From patent USRE35862E, “Delivery systems for pharmacological agents encapsulated with proteinoids” (Emisphere Technologies, Inc., priority 1994, dated 1998)
